Source: patent US9999619B2, “Piperidin-4-yl azetidine derivatives as JAK1 inhibitors” (Incyte Corporation, priority 2010, dated 2018)
pIC50: −log10 of the molar value.

Assays:
Assay type in all cases: biochemical
[1] = molecular target: human JAK1 (a.a. 837-1142) (Homo sapiens, UniProt P23458); assay: In vitro JAK kinase assay (HTRF, phosphorylation of a biotinylated peptide), JAK1; conditions: measured at 1 mM ATP
How it was run: (§1)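 N-terminally His-tagged catalytic domains, baculovirus-expressed in insect cells and purified, were used as enzyme. Reactions ran 1 hr at room temperature and were stopped with a mix of 45 mM EDTA, 300 nM SA-APC and 6 nM Eu-Py20. The HTRF signal was read after 40 min of antibody binding.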

[2] = molecular target: human JAK1 (a.a. 837-1142); assay: as above; conditions: ratio of JAK2 IC50 to JAK1 IC50, measured at 1 mM ATP
How it was run: as §1

[3] = molecular target: Jak2 (a.a. 828-1132) (Homo sapiens (Human), UniProt O60674); assay: In vitro JAK kinase assay (HTRF, phosphorylation of a biotinylated peptide), JAK2; conditions: measured at 1 mM ATP
Chain of Jak2 (a.a. 828-1132) (O60674 828-1132): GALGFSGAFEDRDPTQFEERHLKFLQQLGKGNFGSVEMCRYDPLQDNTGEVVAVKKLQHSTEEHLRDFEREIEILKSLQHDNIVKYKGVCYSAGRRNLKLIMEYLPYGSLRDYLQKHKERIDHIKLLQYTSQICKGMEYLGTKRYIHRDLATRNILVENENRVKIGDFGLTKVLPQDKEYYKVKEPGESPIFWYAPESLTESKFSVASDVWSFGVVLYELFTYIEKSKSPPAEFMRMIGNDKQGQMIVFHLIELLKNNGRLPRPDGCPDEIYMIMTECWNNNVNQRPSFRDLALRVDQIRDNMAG
How it was run: as §1

N#CCC1(n2cc(-c3ncnc4[nH]ccc34)cn2)CN(C2CCN(C(=O)c3ccc(-c4cccnc4)c(F)c3)CC2)C1 [Example 123, {1-[1-(3-fluoro-4-pyridin-3-ylbenzoyl)piperidin-4-yl]-3-[4-(7H-pyrrolo[2,3-d]pyrimidin-4-yl)-1H-pyrazol-1-yl]azetidin-3-yl}acetonitrile]
pIC50 [1]: ≥ 8.30 | IC50 Ratio JAK2/JAK1 [2]: 3.8 | pIC50 [3]: ≥ 8.00

N#CCC1(n2cc(-c3ncnc4[nH]ccc34)cn2)CN(C2CCN(C(=O)c3cc(F)c(F)cc3F)CC2)C1 [Example 48, {3-[4-(7H-pyrrolo[2,3-d]pyrimidin-4-yl)-1H-pyrazol-1-yl]-1-[1-(2,4,5-trifluorobenzoyl)piperidin-4-yl]azetidin-3-yl}acetonitrile]
pIC50 [1]: ≥ 8.30 | IC50 Ratio JAK2/JAK1 [2]: 6.5 | pIC50 [3]: 7.30 to 8.00

N#CCC1(n2cc(-c3ncnc4[nH]ccc34)cn2)CN(C2CCN(C(=O)c3ccc(-c4cccc(C#N)c4)c(F)c3)CC2)C1 [Example 125, 4′-[(4-{3-(cyanomethyl)-3-[4-(7H-pyrrolo[2,3-d]pyrimidin-4-yl)-1H-pyrazol-1-yl]azetidin-1-yl}piperidin-1-yl)carbonyl]-2′-fluorobiphenyl-3-carbonitrile]
pIC50 [1]: ≥ 8.30 | IC50 Ratio JAK2/JAK1 [2]: 8.1 | pIC50 [3]: 7.30 to 8.00

N#CCC1(n2ccc(-c3ncnc4[nH]ccc34)c2)CN(C2CCN(C(=O)c3ccnc(C(F)(F)F)c3F)CC2)C1 [Example 261, {1-{1-[3-Fluoro-2-(trifluoromethyl)isonicotinoyl]piperidin-4-yl}-3-[3-(7H-pyrrolo[2,3-d]pyrimidin-4-yl)-1H-pyrrol-1-yl]azetidin-3-yl}acetonitrile]
pIC50 [1]: 7.70 to 8.30 | IC50 Ratio JAK2/JAK1 [2]: 20.8 | pIC50 [3]: < 7.00

N#CCC1(n2ccc(-c3ncnc4[nH]ccc34)c2)CN(C2CCN(C(=O)c3c(F)ccc(F)c3F)CC2)C1 [Example 270, {3-[3-(7H-pyrrolo[2,3-d]pyrimidin-4-yl)-1H-pyrrol-1-yl]-1-[1-(2,3,6-trifluorobenzoyl)piperidin-4-yl]azetidin-3-yl}acetonitrile]
pIC50 [1]: ≥ 8.30 | IC50 Ratio JAK2/JAK1 [2]: 6.1 | pIC50 [3]: ≥ 8.00

CC(C)NC(=O)N1CCC(N2CC(CC#N)(n3cc(-c4ncnc5[nH]ccc45)cn3)C2)CC1 [Example 367, 4-{3-(cyanomethyl)-3-[4-(7H-pyrrolo[2,3-d]pyrimidin-4-yl)-1H-pyrazol-1-yl]azetidin-1-yl}-N-isopropylpiperidine-1-carboxamide]
pIC50 [1]: ≥ 8.30 | IC50 Ratio JAK2/JAK1 [2]: 33.8 | pIC50 [3]: 7.30 to 8.00

N#CCC1(n2cc(-c3ncnc4[nH]ccc34)cn2)CN(C2CCN(C(=O)OCc3ccc(F)c(F)c3)CC2)C1 [Example 394, 3,4-difluorobenzyl 4-{3-(cyanomethyl)-3-[4-(7H-pyrrolo[2,3-d]pyrimidin-4-yl)-1H-pyrazol-1-yl]azetidin-1-yl}piperidine-1-carboxylate]
pIC50 [1]: 7.70 to 8.30 | IC50 Ratio JAK2/JAK1 [2]: 11.1 | pIC50 [3]: 7.00 to 7.30

N#CCC1(n2cc(-c3ncnc4[nH]ccc34)cn2)CN(C2CCN(C(=O)Nc3cccc(C(F)(F)F)c3)CC2)C1 [Example 166, 4-{3-(cyanomethyl)-3-[4-(7H-pyrrolo[2,3-d]pyrimidin-4-yl)-1H-pyrazol-1-yl]azetidin-1-yl}-N-[3-(trifluoromethyl)phenyl]piperidine-1-carboxamide]
pIC50 [1]: ≥ 8.30 | IC50 Ratio JAK2/JAK1 [2]: 5.5 | pIC50 [3]: ≥ 8.00

COCCN(C)Cc1cc(C(=O)N2CCC(N3CC(CC#N)(n4cc(-c5ncnc6[nH]ccc56)cn4)C3)CC2)nc(C(F)(F)F)n1 [Example 384, {1-(1-{[6-{[(2-methoxyethyl)(methyl)amino]methyl}-2-(trifluoromethyl)pyrimidin-4-yl]carbonyl}piperidin-4-yl)-3-[4-(7H-pyrrolo[2,3-d]pyrimidin-4-yl)-1H-pyrazol-1-yl]azetidin-3-yl}acetonitrile]
pIC50 [1]: ≥ 8.30 | IC50 Ratio JAK2/JAK1 [2]: 29.6 | pIC50 [3]: 7.00 to 7.30

N#CCC1(n2cc(-c3ncnc4[nH]ccc34)cn2)CN(C2CCN(C(=O)c3c(F)c(F)cc(F)c3F)CC2)C1 [Example 56, {3-[4-(7H-pyrrolo[2,3-d]pyrimidin-4-yl)-1H-pyrazol-1-yl]-1-[1-(2,3,5,6-tetrafluorobenzoyl)piperidin-4-yl]azetidin-3-yl}acetonitrile]
pIC50 [1]: ≥ 8.30 | IC50 Ratio JAK2/JAK1 [2]: 8.8 | pIC50 [3]: ≥ 8.00

N#CCC1(n2cc(-c3ncnc4[nH]ccc34)cn2)CN(C2CCN(C(=O)c3sc4cccc(F)c4c3Cl)CC2)C1 [Example 92, {1-{1-[(3-chloro-4-fluoro-1-benzothien-2-yl)carbonyl]piperidin-4-yl}-3-[4-(7H-pyrrolo[2,3-d]pyrimidin-4-yl)-1H-pyrazol-1-yl]azetidin-3-yl}acetonitrile]
pIC50 [1]: ≥ 8.30 | IC50 Ratio JAK2/JAK1 [2]: 2.8 | pIC50 [3]: ≥ 8.00

N#CCC1(n2cc(-c3c(C#N)cnc4[nH]ccc34)cn2)CN(C2CCN(C(=O)c3cc(Br)cc(Br)c3)CC2)C1 [Example 336, 4-(1-{3-(cyanomethyl)-1-[1-(3,5-dibromobenzoyl)piperidin-4-yl]azetidin-3-yl}-1H-pyrazol-4-yl)-1H-pyrrolo[2,3-b]pyridine-5-carbonitrile]
pIC50 [1]: ≥ 8.30 | IC50 Ratio JAK2/JAK1 [2]: 2.9 | pIC50 [3]: ≥ 8.00

COc1cc(F)cc(C(=O)N2CCC(N3CC(CC#N)(n4cc(-c5ncnc6[nH]ccc56)cn4)C3)CC2)c1 [Example 36, {1-[1-(3-fluoro-5-methoxybenzoyl)piperidin-4-yl]-3-[4-(7H-pyrrolo[2,3-d]pyrimidin-4-yl)-1H-pyrazol-1-yl]azetidin-3-yl}acetonitrile]
pIC50 [1]: ≥ 8.30 | IC50 Ratio JAK2/JAK1 [2]: 2.3 | pIC50 [3]: ≥ 8.00

Cc1cc(C(=O)N2CCC(N3CC(CC#N)(n4cc(-c5ncnc6[nH]ccc56)cn4)C3)CC2)cs1 [Example 73, {1-{1-[(5-methyl-3-thienyl)carbonyl]piperidin-4-yl}-3-[4-(7H-pyrrolo[2,3-d]pyrimidin-4-yl)-1H-pyrazol-1-yl]azetidin-3-yl}acetonitrile]
pIC50 [1]: ≥ 8.30 | IC50 Ratio JAK2/JAK1 [2]: 4.2 | pIC50 [3]: ≥ 8.00

N#CCC1(n2cc(-c3ncnc4[nH]ccc34)cn2)CN(C2CCN(C(=O)Nc3ccccc3C(F)(F)F)CC2)C1 [Example 157, 4-{3-(cyanomethyl)-3-[4-(7H-pyrrolo[2,3-d]pyrimidin-4-yl)-1H-pyrazol-1-yl]azetidin-1-yl}-N-[2-(trifluoromethyl)phenyl]piperidine-1-carboxamide]
pIC50 [1]: ≥ 8.30 | IC50 Ratio JAK2/JAK1 [2]: 14.8 | pIC50 [3]: 7.00 to 7.30

N#CCC1(n2cc(-c3ncnc4[nH]ccc34)cn2)CN(C2CCN(C(=O)Nc3ccsc3)CC2)C1 [Example 179, 4-{3-(cyanomethyl)-3-[4-(7H-pyrrolo[2,3-d]pyrimidin-4-yl)-1H-pyrazol-1-yl]azetidin-1-yl}-N-3-thienylpiperidine-1-carboxamide]
pIC50 [1]: 7.70 to 8.30 | IC50 Ratio JAK2/JAK1 [2]: 3.8 | pIC50 [3]: 7.00 to 7.30

N#CCC1(n2cc(-c3ncnc4[nH]ccc34)cn2)CN(C2CC3CCC(C2)N3C(=O)c2ccc(F)c(F)c2)C1 (stereo not drawn) [Example 139, {1-[8-(3,4-difluorobenzoyl)-8-azabicyclo[3.2.1]oct-3-yl]-3-[4-(7H-pyrrolo[2,3-d]pyrimidin-4-yl)-1H-pyrazol-1-yl]azetidin-3-yl}acetonitrile]
pIC50 [1]: ≥ 8.30 | IC50 Ratio JAK2/JAK1 [2]: 4.4 | pIC50 [3]: ≥ 8.00

N#CCC1(n2ccc(-c3ncnc4[nH]ccc34)c2)CN(C2CCN(C(=O)Nc3ncccc3F)CC2)C1 [Example 292, 4-{3-(cyanomethyl)-3-[3-(7H-pyrrolo[2,3-d]pyrimidin-4-yl)-1H-pyrrol-1-yl]azetidin-1-yl}-N-(3-fluoropyridin-2-yl)piperidine-1-carboxamide]
pIC50 [1]: ≥ 8.30 | IC50 Ratio JAK2/JAK1 [2]: 9.1 | pIC50 [3]: 7.30 to 8.00

N#CCC1(n2cc(-c3ncnc4[nH]ccc34)cn2)CN(C2CCN(C(=O)c3cc(F)cc(F)c3)CC2)C1 [Example 3, {1-[1-(3,5-difluorobenzoyl)piperidin-4-yl]-3-[4-(7H-pyrrolo[2,3-d]pyrimidin-4-yl)-1H-pyrazol-1-yl]azetidin-3-yl}acetonitrile]
pIC50 [1]: ≥ 8.30 | IC50 Ratio JAK2/JAK1 [2]: 11.0 | pIC50 [3]: 7.30 to 8.00

N#CCC1(n2ccc(-c3ncnc4[nH]ccc34)c2)CN(C2CCN(C(=O)c3ccc(F)c(F)c3F)CC2)C1 [Example 280, {3-[3-(7H-pyrrolo[2,3-d]pyrimidin-4-yl)-1H-pyrrol-1-yl]-1-[1-(2,3,4-trifluorobenzoyl)piperidin-4-yl]azetidin-3-yl}acetonitrile]
pIC50 [1]: ≥ 8.30 | IC50 Ratio JAK2/JAK1 [2]: 7.5 | pIC50 [3]: ≥ 8.00

N#CCC1(n2cc(-c3ncnc4[nH]ccc34)cn2)CN(C2CCN(C(=O)c3ccc(-c4ccc5cnccc5c4)c(F)c3)CC2)C1 [Example 115, {1-[1-(3-fluoro-4-isoquinolin-6-ylbenzoyl)piperidin-4-yl]-3-[4-(7H-pyrrolo[2,3-d]pyrimidin-4-yl)-1H-pyrazol-1-yl]azetidin-3-yl}acetonitrile]
pIC50 [1]: ≥ 8.30 | IC50 Ratio JAK2/JAK1 [2]: 15.7 | pIC50 [3]: 7.30 to 8.00

N#CCC1(n2cc(-c3ncnc4[nH]ccc34)cn2)CN(C2CCN(C(=O)c3c(F)cccc3F)CC2)C1 [Example 44, {1-[1-(2,6-difluorobenzoyl)piperidin-4-yl]-3-[4-(7H-pyrrolo[2,3-d]pyrimidin-4-yl)-1H-pyrazol-1-yl]azetidin-3-yl}acetonitrile]
pIC50 [1]: ≥ 8.30 | IC50 Ratio JAK2/JAK1 [2]: 2.9 | pIC50 [3]: ≥ 8.00

N#CCC1(n2ccc(-c3ncnc4[nH]ccc34)c2)CN(C2CCN(C(=O)Nc3cnccc3C(F)(F)F)CC2)C1 [Example 291, 4-{3-(cyanomethyl)-3-[3-(7H-pyrrolo[2,3-d]pyrimidin-4-yl)-1H-pyrrol-1-yl]azetidin-1-yl}-N-[4-(trifluoromethyl)pyridin-3-yl]piperidine-1-carboxamide]
pIC50 [1]: ≥ 8.30 | IC50 Ratio JAK2/JAK1 [2]: 20.3 | pIC50 [3]: 7.00 to 7.30
